According to the supplement of paper PMC10307832:

Key:
Assay in all cases: relative viability (nuclei count vs DMSO), 5 days (fraction); higher = more cells survive
[1] = compound: OCc1c[nH]c2ccccc12 [Indole-3-carbinol] + C[C@]1(O)C[C@@H](c2nc(-c3ccc4ccc(-c5ccccc5)nc4c3)c3c(N)nccn32)C1 [Linsitinib] (partner 1 µM)
Outline: (§1)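 Nuclei were stained with Hoechst during a one-step fixation (final 0.05% Triton X-100, 1% formaldehyde, 1 ug/ml Hoechst) carried out 5 days after dosing, then counted on 4× images. The cells, lung cancer lines in 1536-well plates, had been dosed by pin tool the day after seeding with one drug alone or a fixed anchor-drug dose plus five library-drug doses (not always all listed) in √10 steps. Relative viability is the nuclei count in treated wells divided by that in vehicle wells, and each value is the median of duplicate plates.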

[2] = compound: OCc1c[nH]c2ccccc12 [Indole-3-carbinol] + C[C@@H](Oc1cc(-c2cnn(C3CCNCC3)c2)cnc1N)c1c(Cl)ccc(F)c1Cl [Crizotinib] (partner 1 µM)
Outline: as §1

[3] = compound: OCc1c[nH]c2ccccc12 [Indole-3-carbinol] + COc1cc2c(Oc3ccc(NC(=O)C4(C(=O)Nc5ccc(F)cc5)CC4)cc3F)ccnc2cc1OCCCN1CCOCC1 [Foretinib] (partner 0.25 µM)
Outline: as §1

[4] = compound: OCc1c[nH]c2ccccc12 [Indole-3-carbinol] + Cc1nc(NC(=O)N2CCC[C@H]2C(N)=O)sc1-c1ccnc(C(C)(C)C(F)(F)F)c1 [Alpelisib] (partner 2 µM)
Outline: as §1

[5] = compound: OCc1c[nH]c2ccccc12 [Indole-3-carbinol] + CS(=O)(=O)N1CCN(Cc2cc3nc(-c4cccc5[nH]ncc45)nc(N4CCOCC4)c3s2)CC1 [Pictilisib] (partner 1 µM)
Outline: as §1

[6] = compound: OCc1c[nH]c2ccccc12 [Indole-3-carbinol] + CC(C)C[C@H](NC(=O)[C@H](Cc1ccccc1)NC(=O)c1cnccn1)B(O)O [Bortezomib] (partner 0.002 µM)
Outline: as §1

[7] = compound: OCc1c[nH]c2ccccc12 [Indole-3-carbinol] + CC1(C)CCC(c2ccc(Cl)cc2)=C(CN2CCN(c3ccc(C(=O)NS(=O)(=O)c4ccc(N[C@H](CCN5CCOCC5)CSc5ccccc5)c(S(=O)(=O)C(F)(F)F)c4)cc3)CC2)C1 [Navitoclax] (partner 0.5 µM)
Outline: as §1

[8] = compound: OCc1c[nH]c2ccccc12 [Indole-3-carbinol] + CS(=O)(=O)CCNCc1ccc(-c2ccc3ncnc(Nc4ccc(OCc5cccc(F)c5)c(Cl)c4)c3c2)o1 [Lapatinib] (partner 2 µM)
Outline: as §1

[9] = compound: OCc1c[nH]c2ccccc12 [Indole-3-carbinol] + O=C(c1cc(Cc2n[nH]c(=O)c3ccccc23)ccc1F)N1CCN(C(=O)C2CC2)CC1 [Olaparib] (partner 8 µM)
Outline: as §1

Indole-3-carbinol = compound: OCc1c[nH]c2ccccc12 [Indole-3-carbinol]
Outline: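 For viability, nuclei in each treated well were divided by nuclei in vehicle wells and the median across plates was taken. Lung cancer cell lines in 1536-well plates were pinned with five library-drug doses (not always all listed) spaced by √10, cultured 5 days without medium change, and imaged at 4× after Hoechst staining, with plates passing only at control CV below 25% and at least one doubling.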

Row | Cell Line | relative viability ([1]; first compound 0.253 µM) | relative viability ([1]; first compound 0.8 µM) | relative viability ([1]; first compound 2.53 µM) | relative viability ([1]; first compound 8 µM) | relative viability ([2]; first compound 0.253 µM) | relative viability ([2]; first compound 0.8 µM) | relative viability ([2]; first compound 2.53 µM) | relative viability ([2]; first compound 8 µM) | relative viability ([3]; first compound 0.253 µM) | relative viability ([3]; first compound 0.8 µM) | relative viability ([3]; first compound 2.53 µM) | relative viability ([3]; first compound 8 µM) | relative viability ([4]; first compound 0.253 µM) | relative viability ([4]; first compound 0.8 µM) | relative viability ([4]; first compound 2.53 µM) | relative viability ([4]; first compound 8 µM) | relative viability ([5]; first compound 0.253 µM) | relative viability ([5]; first compound 0.8 µM) | relative viability ([5]; first compound 2.53 µM) | relative viability ([5]; first compound 8 µM) | relative viability ([6]; first compound 0.253 µM) | relative viability ([6]; first compound 0.8 µM) | relative viability ([6]; first compound 2.53 µM) | relative viability ([6]; first compound 8 µM) | relative viability ([7]; first compound 0.253 µM) | relative viability ([7]; first compound 0.8 µM) | relative viability ([7]; first compound 2.53 µM) | relative viability ([7]; first compound 8 µM) | relative viability ([8]; first compound 0.253 µM) | relative viability ([8]; first compound 0.8 µM) | relative viability ([8]; first compound 2.53 µM) | relative viability ([8]; first compound 8 µM) | relative viability ([9]; first compound 0.253 µM) | relative viability ([9]; first compound 0.8 µM) | relative viability ([9]; first compound 2.53 µM) | relative viability ([9]; first compound 8 µM) | relative viability (Indole-3-carbinol; 0.253 µM) | relative viability (Indole-3-carbinol; 0.8 µM) | relative viability (Indole-3-carbinol; 2.53 µM) | relative viability (Indole-3-carbinol; 8 µM)
1 | Calu-6 | 0.974 | 0.88 | 1.07 | 0.92 | 0.759 | 0.863 | 0.871 | 0.742 | 0.927 | 0.941 | 0.842 | 0.841 | 1.04 | 0.966 | 0.819 | 0.922 | 0.887 | 1.05 | 0.916 | 0.865 | 1.08 | 1.1 | 1.01 | 0.966 | 0.836 | 0.947 | 0.889 | 0.648 | 1.03 | 1.12 | 1.05 | 0.94 | 0.615 | 0.629 | 0.59 | 0.536 | 1.07 | 0.994 | 1 | 0.914
2 | EBC-1 | 0.974 | 0.965 | 1.07 | 0.71 | 0.176 | 0.188 | 0.205 | 0.169 | 0.122 | 0.0975 | 0.1 | 0.102 | 0.826 | 0.856 | 0.83 | 0.719 | 0.359 | 0.4 | 0.347 | 0.364 | 0.546 | 0.541 | 0.628 | 0.477 | 0.355 | 0.404 | 0.39 | 0.415 | 0.196 | 0.186 | 0.228 | 0.244 | 0.684 | 0.732 | 0.631 | 0.566 | 0.938 | 1.01 | 1.07 | 0.871
